# Assay results as given in patent US8034936B2, “Spirocyclic cyclohexane compounds useful to treat substance dependency” (Gruenenthal GmbH, priority 2005, dated 2011).
# pIC50, pKi: −log10 of the molar value.
# How the values were obtained:
# [1] = molecular target: HERG channel (Homo sapiens, UniProt Q12809); conditions: read-out: IC50, HERG channel; Katchman et al. 2002; cited from earlier work
# [2] = molecular target: human μ-opiate receptor (Homo sapiens, UniProt P35372); assay: μ-opiate receptor binding, [3H]-naloxone displacement, CHO-K1 membrane preparation; conditions: No. 1-49
# [3] = system: mice; conditions: mouse, in vivo, ip, 30 mg/kg
# Chain of HERG channel (Q12809 whole entry): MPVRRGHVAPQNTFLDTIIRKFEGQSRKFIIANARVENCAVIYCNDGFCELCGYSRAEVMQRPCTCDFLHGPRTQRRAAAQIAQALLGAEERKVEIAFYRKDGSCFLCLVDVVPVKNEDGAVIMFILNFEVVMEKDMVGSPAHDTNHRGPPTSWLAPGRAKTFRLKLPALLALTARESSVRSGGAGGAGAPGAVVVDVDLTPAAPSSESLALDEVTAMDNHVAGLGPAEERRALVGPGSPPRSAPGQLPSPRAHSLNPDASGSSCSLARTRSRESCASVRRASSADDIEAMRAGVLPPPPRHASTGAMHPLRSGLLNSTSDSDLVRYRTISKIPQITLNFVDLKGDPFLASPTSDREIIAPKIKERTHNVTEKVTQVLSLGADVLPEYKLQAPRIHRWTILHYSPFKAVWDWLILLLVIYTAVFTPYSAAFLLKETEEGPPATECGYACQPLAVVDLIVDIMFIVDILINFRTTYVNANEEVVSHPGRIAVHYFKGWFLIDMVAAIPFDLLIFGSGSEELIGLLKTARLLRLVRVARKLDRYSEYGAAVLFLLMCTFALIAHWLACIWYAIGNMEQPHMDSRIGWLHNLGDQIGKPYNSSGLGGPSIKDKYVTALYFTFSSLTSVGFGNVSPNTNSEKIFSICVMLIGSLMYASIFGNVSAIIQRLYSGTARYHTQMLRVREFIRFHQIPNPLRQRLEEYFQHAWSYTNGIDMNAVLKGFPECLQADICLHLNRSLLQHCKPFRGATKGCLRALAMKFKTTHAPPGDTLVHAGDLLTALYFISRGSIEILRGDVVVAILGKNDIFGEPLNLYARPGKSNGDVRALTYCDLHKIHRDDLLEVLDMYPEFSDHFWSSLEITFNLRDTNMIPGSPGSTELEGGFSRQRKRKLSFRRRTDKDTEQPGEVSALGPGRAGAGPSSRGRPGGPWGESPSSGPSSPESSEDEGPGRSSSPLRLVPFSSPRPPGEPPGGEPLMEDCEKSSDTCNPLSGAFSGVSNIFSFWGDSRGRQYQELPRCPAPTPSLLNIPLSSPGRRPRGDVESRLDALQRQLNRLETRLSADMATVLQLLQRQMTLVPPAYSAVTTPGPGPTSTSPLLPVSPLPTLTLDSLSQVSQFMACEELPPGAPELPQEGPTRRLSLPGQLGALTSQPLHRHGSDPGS
# Chain of human μ-opiate receptor (P35372 whole entry): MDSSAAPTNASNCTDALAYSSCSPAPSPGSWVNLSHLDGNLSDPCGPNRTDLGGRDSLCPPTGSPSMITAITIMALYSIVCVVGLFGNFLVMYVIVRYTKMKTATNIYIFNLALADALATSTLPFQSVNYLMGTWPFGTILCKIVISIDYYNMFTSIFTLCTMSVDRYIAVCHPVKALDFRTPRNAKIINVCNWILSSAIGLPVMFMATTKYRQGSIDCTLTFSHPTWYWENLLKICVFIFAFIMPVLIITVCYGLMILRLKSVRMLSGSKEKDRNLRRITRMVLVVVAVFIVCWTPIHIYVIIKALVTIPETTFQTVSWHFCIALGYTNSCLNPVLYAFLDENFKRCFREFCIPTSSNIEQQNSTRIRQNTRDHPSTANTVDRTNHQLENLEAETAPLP
smiles,measurement,setting,value
CCC(=O)C(CC(C)N(C)C)(c1ccccc1)c1ccccc1 (racemic) [methadone],pIC50,[1],5.01
"CN(C)C1(c2ccccc2)CCC2(CC1)NCCc1c2oc2ccccc12 (stereo not drawn) [Example 12, 1,1-(3-dimethylamino-3-phenylpentamethylene)-1,3,4,9-tetrahydro-2-aza-9-oxafluorene]",pKi,[2],6.77
"CCC(=O)C(C[C@@H](C)N(C)C)(c1ccccc1)c1ccccc1 [Levomethadone, levomethadone]",withdrawal jumping triggered by naloxone,[3],induced withdrawal jumping
